{"source": "paper PMC12299890", "about": "(Pharmaceuticals, 2025)", "assay": "Serum concentration and pharmacokinetics of SCI after oral gavage in Wistar rats", "assay_type": "in vivo, Wistar rat", "conditions": "for AUC(0-t) / Cmax / Tmax / k el / MRT / half-life: male, Wistar, rat, po, 10 mg/kg; for k el: read-out: K (elimination rate constant) (converted); for MRT: read-out: MRT (mean residence time); for half-life: read-out: T0.5e (elimination half-life) (converted)", "experimental": "All procedures were performed according to the Local Ethical Committee of Experiments on Animals guidelines in Olsztyn, Poland. The experiment was conducted in the same way as described by Antonowski et al.. Briefly, the experiment was performed on male Wistar rats (n = 6). Rats were maintained in ventilated rooms under a standard day photoperiod (12:12 h light–dark) as well as with lights on from 700 to 1900 h at 21 °C. All rats had free access to food and water. At 42 days of age, rats were randomized into experimental groups (Table 1 and Table 4).\nBefore the administration of cyclitol (10 mg/kg), the rats were fasting for 12 h (Table 1). […] Access to water was unlimited during the experiments. The study group (n = 6) was divided into two subgroups (n = 3 rats per subgroup). This practice allows for the use of only 6 rats for the entire experiment in accordance with the 3 Rs principle. Rats received the compound at a dose of 10 mg/kg body weight. Rats were weighed before starting the compound administration. Cyclitol was administered to the rats from the study group using a stainless-steel gastric tube with a ball tip (manufacturer—Agnthos, curved gastric tube, 16G, 3 mm tip, 75 mm). Cyclitol was dissolved in distilled water to a maximum volume of 1 mL. The prepared solution was administered to the animal.\nBlood samples were collected into Eppendorf tubes and were centrifuged at 2500× g for 10 min at 8 °C the following day. Blood was harvested from the tail at a specific time. […] Serum was stored at −80 °C for subsequent analyses.\nThe analysis is described in detail by Antonowski and co-workers. Briefly, the first step was to remove the protein, then concentrate the sample in a speed vacuum evaporator to dryness. Next, samples were analyzed using the high-resolution gas chromatography method. We used a gas chromatograph GC2010Plus (Shimadzu, Tokyo, Japan) with a capillary column ZEBRON ZB-1 (15 m length, 0.25 mm diameter, and 0.1 μm film thickness, Phenomenex, Torrance, CA, USA). Helium was used as a carrier gas (at a flow rate of 1.18 mL min^−1). […] Finally, scyllo-inositol was quantified by using a standard.\nThe PK parameters were calculated using PK Solver. PKSolver is an add-in program for pharmacokinetic and pharmacodynamic data analysis […]. […] The area under the drug concentration–time curve from time zero to the time of the last quantifiable concentration (AUClast) was calculated using the trapezoidal rule. The volume over which the drug was distributed (Vd) and clearance (CL) were conducted by PK Solver. […] Nevertheless, we estimated K by log-linear regression analysis on data points on the terminal log-linear phase. Noncompartmental analysis is generally the preferred methodology to use in that it requires fewer assumptions than model-based approaches. We presented the results for individual rats, subgroups of rats, and for all subjects studied. The content of scyllo-inositol was calculated from the standard curves of appropriate components. To determine the terminal phase, […] was sufficient.\nAn analysis of all parameters was carried out with GraphPad Prism software (Version 10 Graph Pad Software Inc., La Jolla, CA, USA). Data are expressed as means ± SEM or individual data. Briefly, AUClast was calculated using the trapezoidal method. The T0.5 of oral administration was calculated as 0.693/K.", "key": {"[1]": {"conditions": "serum, Mean of rats 1–3 ± SEM, oral 10 mg/kg"}, "[2]": {"conditions": "serum, Mean of rats 1–3 ± SEM, serum, oral 10 mg/kg"}, "[3]": {"conditions": "serum, Mean of rats 4–6 ± SEM, oral 10 mg/kg"}, "[4]": {"conditions": "serum, Mean of rats 4–6 ± SEM, serum, oral 10 mg/kg"}, "[5]": {"conditions": "serum, Rat No 1, serum, oral 10 mg/kg"}, "[6]": {"conditions": "serum, Rat No 2, serum, oral 10 mg/kg"}, "[7]": {"conditions": "serum, Rat No 3, serum, oral 10 mg/kg"}, "[8]": {"conditions": "serum, Rat No 4, serum, oral 10 mg/kg"}, "[9]": {"conditions": "serum, Rat No 5, serum, oral 10 mg/kg"}, "[10]": {"conditions": "serum, Rat No 6, serum, oral 10 mg/kg"}, "[11]": {"conditions": "serum, mean serum profile of six rats, oral 3.92 mg SCI (10 mg/kg)"}, "[12]": {"conditions": "mean serum profile of six rats, oral 3.92 mg SCI (10 mg/kg)"}}, "note": "Like-named read-outs stand apart in the source and are kept apart here.", "data": [{"smiles": "O[C@H]1[C@H](O)[C@@H](O)[C@H](O)[C@@H](O)[C@@H]1O", "note": "[SCI, scyllo-inositol]", "values": [{"measurement": "AUC(0-t)", "setting": "[1]", "result": "36400 ± 3390", "unit": "ng·h/mL"}, {"measurement": "Cmax", "setting": "[1]", "result": "6730 ± 291", "unit": "ng/mL"}, {"measurement": "Tmax", "setting": "[1]", "result": "1.33 ± 0.167", "unit": "h"}, {"measurement": "k el", "setting": "[2]", "result": 0.000237, "unit": "s⁻¹"}, {"measurement": "MRT", "setting": "[2]", "result": "36.2 ± 20.7", "unit": "h"}, {"measurement": "half-life", "setting": "[2]", "result": "25.1 ± 14.3", "unit": "h"}, {"measurement": "AUC(0-t)", "setting": "[3]", "result": "19800 ± 4260", "unit": "ng·h/mL"}, {"measurement": "Cmax", "setting": "[3]", "result": "4900 ± 874", "unit": "ng/mL"}, {"measurement": "Tmax", "setting": "[3]", "result": "2.67 ± 0.667", "unit": "h"}, {"measurement": "k el", "setting": "[4]", "result": 0.000126, "unit": "s⁻¹"}, {"measurement": "MRT", "setting": "[4]", "result": "3.6 ± 1.48", "unit": "h"}, {"measurement": "half-life", "setting": "[4]", "result": "2.5 ± 1.02", "unit": "h"}, {"measurement": "AUC(0-t)", "setting": "serum, Rat No 1, oral 10 mg/kg", "result": 40800, "unit": "ng·h/mL"}, {"measurement": "Cmax", "setting": "serum, Rat No 1, oral 10 mg/kg", "result": 7200, "unit": "ng/mL"}, {"measurement": "Tmax", "setting": "serum, Rat No 1, oral 10 mg/kg", "result": 1.5, "unit": "h"}, {"measurement": "k el", "setting": "[5]", "result": 0.0007, "unit": "s⁻¹"}, {"measurement": "MRT", "setting": "[5]", "result": 0.397, "unit": "h"}, {"measurement": "half-life", "setting": "[5]", "result": 0.275, "unit": "h"}, {"measurement": "AUC(0-t)", "setting": "serum, Rat No 2, oral 10 mg/kg", "result": 38600, "unit": "ng·h/mL"}, {"measurement": "Cmax", "setting": "serum, Rat No 2, oral 10 mg/kg", "result": 6200, "unit": "ng/mL"}, {"measurement": "Tmax", "setting": "serum, Rat No 2, oral 10 mg/kg", "result": 1.5, "unit": "h"}, {"measurement": "k el", "setting": "[6]", "result": "3.85e-06", "unit": "s⁻¹"}, {"measurement": "MRT", "setting": "[6]", "result": 72.1, "unit": "h"}, {"measurement": "half-life", "setting": "[6]", "result": 50, "unit": "h"}, {"measurement": "AUC(0-t)", "setting": "serum, Rat No 3, oral 10 mg/kg", "result": 29700, "unit": "ng·h/mL"}, {"measurement": "Cmax", "setting": "serum, Rat No 3, oral 10 mg/kg", "result": 6800, "unit": "ng/mL"}, {"measurement": "Tmax", "setting": "serum, Rat No 3, oral 10 mg/kg", "result": 1, "unit": "h"}, {"measurement": "k el", "setting": "[7]", "result": "7.67e-06", "unit": "s⁻¹"}, {"measurement": "MRT", "setting": "[7]", "result": 36.3, "unit": "h"}, {"measurement": "half-life", "setting": "[7]", "result": 25.1, "unit": "h"}, {"measurement": "AUC(0-t)", "setting": "serum, Rat No 4, oral 10 mg/kg", "result": 11400, "unit": "ng·h/mL"}, {"measurement": "Cmax", "setting": "serum, Rat No 4, oral 10 mg/kg", "result": 3200, "unit": "ng/mL"}, {"measurement": "Tmax", "setting": "serum, Rat No 4, oral 10 mg/kg", "result": 2, "unit": "h"}, {"measurement": "k el", "setting": "[8]", "result": 0.000253, "unit": "s⁻¹"}, {"measurement": "MRT", "setting": "[8]", "result": 1.1, "unit": "h"}, {"measurement": "half-life", "setting": "[8]", "result": 0.761, "unit": "h"}, {"measurement": "AUC(0-t)", "setting": "serum, Rat No 5, oral 10 mg/kg", "result": 25300, "unit": "ng·h/mL"}, {"measurement": "Cmax", "setting": "serum, Rat No 5, oral 10 mg/kg", "result": 6100, "unit": "ng/mL"}, {"measurement": "Tmax", "setting": "serum, Rat No 5, oral 10 mg/kg", "result": 4, "unit": "h"}, {"measurement": "k el", "setting": "[9]", "result": "4.47e-05", "unit": "s⁻¹"}, {"measurement": "MRT", "setting": "[9]", "result": 6.21, "unit": "h"}, {"measurement": "half-life", "setting": "[9]", "result": 4.31, "unit": "h"}, {"measurement": "AUC(0-t)", "setting": "serum, Rat No 6, oral 10 mg/kg", "result": 22600, "unit": "ng·h/mL"}, {"measurement": "Cmax", "setting": "serum, Rat No 6, oral 10 mg/kg", "result": 5400, "unit": "ng/mL"}, {"measurement": "Tmax", "setting": "serum, Rat No 6, oral 10 mg/kg", "result": 2, "unit": "h"}, {"measurement": "k el", "setting": "[10]", "result": "7.95e-05", "unit": "s⁻¹"}, {"measurement": "MRT", "setting": "[10]", "result": 3.5, "unit": "h"}, {"measurement": "half-life", "setting": "[10]", "result": 2.42, "unit": "h"}, {"measurement": "AUC(0-t)", "setting": "[11]", "result": 23500, "unit": "ng·h/mL"}, {"measurement": "Cmax", "setting": "[11]", "result": 5930, "unit": "ng/mL"}, {"measurement": "Tmax", "setting": "[11]", "result": "~1.5", "unit": "h"}, {"measurement": "k el", "setting": "[11]", "result": "1.91e-05", "unit": "s⁻¹"}, {"measurement": "MRT", "setting": "[11]", "result": 14.5, "unit": "h"}, {"measurement": "half-life", "setting": "[11]", "result": 10.1, "unit": "h"}, {"measurement": "CL", "setting": "[12]", "result": 0.167, "unit": "L/h"}, {"measurement": "Vd", "setting": "[12]", "result": 2.43, "unit": "L"}, {"measurement": "Side effects of SCI supplementation noticed during the study", "setting": "oral 10 mg/kg, up to 48 h", "result": "no side effects"}, {"measurement": "Time of highest average serum concentration", "setting": "rats no. 1–3 (sampled 0–1.5, 12, 24 h), oral 10 mg/kg", "result": 1.5, "unit": "h"}, {"measurement": "Time of highest average serum concentration", "setting": "rats no. 4–6 (sampled 2–48 h), oral 10 mg/kg", "result": 2, "unit": "h"}, {"measurement": "Time of first measurement of SCI concentration greater than 0 mg/L", "setting": "serum, after oral 10 mg/kg", "result": 30, "unit": "min"}]}]}
